Measured values: ChEMBL document CHEMBL1130573, “Anti-AIDS agents-XXVIII.1 Synthesis and Anti-HIV activity of methoxy substituted 3,4-Di-O-()-camphanoyl-(+)-cis-khellactone (DCK) analogues” (Bioorg Med Chem Lett, 1997)
One block for each compound: values may come before it.

Experiments:
H9 [1] = test: Anti-HIV activity was evaluated for the concentration that inhibits viral replication by 50%; format: functional, cell-based; conditions: Homo sapiens
H9 [2] = test: Inhibitory activity against gorwth of uninfected H9 cell growth by 50%; format: functional, cell-based; conditions: Homo sapiens
[3] = Therapeutic index is the ratio of IC50 of compound to that of EC50; conditions: read-out: Therapeutic index

SMILES: Cc1cn([C@H]2C[C@H](N=[N+]=[N-])[C@@H](CO)O2)c(=O)[nH]c1=O [ZIDOVUDINE]
EC50 (H9 [1]): 45 nM

SMILES: COc1cc2ccc3c(c2oc1=O)[C@@H](OC(=O)C12CCC(C)(C(=O)O1)C2(C)C)[C@@H](OC(=O)C12CCC(C)(C(=O)O1)C2(C)C)C(C)(C)O3 (stereo partly specified)
EC50 (H9 [1]): 6 nM
IC50 (H9 [2]): > 153000 nM
selectivity ratio [3]: > 25500

SMILES: CC1(C)Oc2ccc3ccc(=O)oc3c2[C@@H](OC(=O)C23CCC(C)(C(=O)O2)C3(C)C)[C@H]1OC(=O)C12CCC(C)(C(=O)O1)C2(C)C (stereo partly specified)
EC50 (H9 [1]): 0.256 nM
IC50 (H9 [2]): 35000 nM
selectivity ratio [3]: 137000

More lines, main results first:

EC50 (H9 [1]): 2.76 nM
SMILES: COc1cc(=O)oc2c3c(ccc12)OC(C)(C)[C@H](OC(=O)C12CCC(C)(C(=O)O1)C2(C)C)[C@@H]3OC(=O)C12CCC(C)(C(=O)O1)C2(C)C (stereo partly specified)
IC50 (H9 [2]): > 153000 nM
selectivity ratio [3]: > 51000

EC50 (H9 [1]): 24500 nM
SMILES: COc1cc2ccc(=O)oc2c2c1OC(C)(C)[C@H](OC(=O)C13CCC(C)(C(=O)O1)C3(C)C)[C@@H]2OC(=O)C12CCC(C)(C(=O)O1)C2(C)C (stereo partly specified)
IC50 (H9 [2]): > 153000 nM
selectivity ratio [3]: > 9.68

EC50 (H9 [1]): 0.138 nM
SMILES: COc1cc2c(c3oc(=O)ccc13)[C@@H](OC(=O)C13CCC(C)(C(=O)O1)C3(C)C)[C@@H](OC(=O)C13CCC(C)(C(=O)O1)C3(C)C)C(C)(C)O2 (stereo partly specified)
IC50 (H9 [2]): > 153000 nM
selectivity ratio [3]: > 403000
